ChEMBL document CHEMBL3046025, “Fungitoxic Properties of N-Phenylformamidoximes in Control of Benzimidazole-Resistant Isolates of Fungi” (1992)
The source made the active and inactive calls.

Columns and labels:
[1] = test system: Cercospora beticola; assay: Antifungal activity against Benzimidalzole-resistant Cercospora beticola isolate Cb-19 infected in sugar beet seedlings at 3.1 ppm treated as foliar application 7 days prior to inoculation; format: functional
[2] = test system: Cercospora beticola; assay: Antifungal activity against Benzimidalzole-resistant Cercospora beticola isolate Cb-19 infected in sugar beet seedlings at 12.5 ppm 24 hr-post inoculation; format: functional
[3] = test system: Botrytis cinerea; assay: Antifungal activity against Benzimidalzole-resistant Botryotinia fuckeliana isolate Bc-44 infected kidney bean leaves at 200 ppm applied as soil drench 3 days prior to inoculation; format: functional
[4] = test system: Botrytis cinerea; assay: Antifungal activity against Benzimidalzole-resistant Botryotinia fuckeliana isolate Bc-44 infected kidney bean leaves at 3.1 ppm treated as foliar application followed by incubation for 7 days in green house condition; format: functional
[5] = test system: Botrytis cinerea; assay: Ratio of EC50 for Benzimidalzole-resistant Botryotinia fuckeliana isolate Bc-40 to EC50 for Benzimidalzole-resistant Botryotinia fuckeliana isolate Bc-44; format: functional
[6] = test system: Botrytis cinerea; assay: Ratio of EC50 for Benzimidalzole-resistant Botryotinia fuckeliana isolate Bc-20 to EC50 for Benzimidalzole-resistant Botryotinia fuckeliana isolate Bc-31; format: functional
[7] = test system: Botrytis cinerea; assay: Ratio of EC50 for Benzimidalzole-sensitive Botryotinia fuckeliana isolate Bc-9 to EC50 for Benzimidalzole-resistant Botryotinia fuckeliana isolate Bc-31; format: functional
[8] = test system: Botrytis cinerea; assay: Ratio of EC50 for Benzimidalzole-sensitive Botryotinia fuckeliana isolate Bc-3 to EC50 for Benzimidalzole-resistant Botryotinia fuckeliana isolate Bc-44; format: functional
[9] = test system: Botrytis cinerea; assay: Ratio of EC50 for Benzimidalzole-sensitive Botryotinia fuckeliana isolate Bc-3 to EC50 for Benzimidalzole-resistant Botryotinia fuckeliana isolate Bc-31; format: functional
[10] = test system: Botrytis cinerea; assay: Antifungal activity against Benzimidalzole-resistant Botryotinia fuckeliana isolate Bc-20 at 0.001 to 1000 ppm after 3 days by agar dilution method; format: functional, organism-based
[11] = test system: Botrytis cinerea; assay: Antifungal activity against Benzimidalzole-resistant Botryotinia fuckeliana isolate Bc-40 at 0.001 to 1000 ppm after 3 days by agar dilution method; format: functional, organism-based
[12] = test system: Cercospora beticola; assay: Ratio of EC50 for […] to EC50 for Benzimidalzole-resistant Cercospora beticola isolate 49-4; format: functional
[13] = test system: Cercospora beticola; assay: Ratio of EC50 for Benzimidalzole-resistant Cercospora beticola isolate 20-2 to EC50 for Benzimidalzole-resistant Cercospora beticola isolate 18-2; format: functional
[14] = test system: Cercospora beticola; assay: Ratio of EC50 for Benzimidalzole-resistant Cercospora beticola isolate 20-2 to EC50 for Benzimidalzole-resistant Cercospora beticola isolate 1-3; format: functional
[15] = test system: Cercospora beticola; assay: Ratio of EC50 for Benzimidalzole-resistant Cercospora beticola isolate 18-11 to EC50 for Benzimidalzole-resistant Cercospora beticola isolate 49-4; format: functional
[16] = test system: Cercospora beticola; assay: Ratio of EC50 for Benzimidalzole-resistant Cercospora beticola isolate 18-11 to EC50 for Benzimidalzole-resistant Cercospora beticola isole 28-8; format: functional
[17] = test system: Cercospora beticola; assay: Ratio of EC50 for Benzimidalzole-resistant Cercospora beticola isolate 6-13 to EC50 for Benzimidalzole-resistant Cercospora beticola isolate 1-3; format: functional
[18] = test system: Cercospora beticola; assay: Ratio of EC50 for Benzimidalzole-resistant Cercospora beticola isolate 6-13 to EC50 for Benzimidalzole-resistant Cercospora beticola isole 28-8; format: functional
[19] = test system: Cercospora beticola; assay: Antifungal activity against Benzimidalzole-resistant Cercospora beticola isolate 6-13 at 0.001 to 1000 ppm after 14 days by agar dilution method; format: functional, organism-based
[20] = test system: Cercospora beticola; assay: Antifungal activity against Benzimidalzole-sensitive Cercospora beticola isolate 22-5 at 0.001 to 1000 ppm after 14 days by agar dilution method; format: functional, organism-based
[21] = test system: Cercospora beticola; assay: Antifungal activity against Benzimidalzole-resistant Cercospora beticola isolate Cb-19 at 0.001 to 1000 ppm after 14 days by agar dilution method; format: functional, organism-based
[22] = test system: Cercospora beticola; assay: Antifungal activity against Benzimidalzole-resistant Cercospora beticola isolate 49-4 at 0.001 to 1000 ppm after 14 days by agar dilution method; format: functional, organism-based
[23] = test system: Cercospora beticola; assay: Antifungal activity against Benzimidalzole-resistant Cercospora beticola isolate 18-2 at 0.001 to 1000 ppm after 14 days by agar dilution method; format: functional, organism-based
[24] = test system: Cercospora beticola; assay: Antifungal activity against Benzimidalzole-resistant Cercospora beticola isolate 1-3 at 0.001 to 1000 ppm after 14 days by agar dilution method; format: functional, organism-based
[25] = test system: Cercospora beticola; assay: Ratio of EC50 for Benzimidalzole-sensitive Cercospora beticola isolate 24-3 to EC50 for Benzimidalzole-resistant Cercospora beticola isolate 49-4; format: functional
[26] = test system: Cercospora beticola; assay: Ratio of EC50 for Benzimidalzole-sensitive Cercospora beticola isolate 24-3 to EC50 for Benzimidalzole-resistant Cercospora beticola isolate 18-2; format: functional
[27] = test system: Cercospora beticola; assay: Ratio of EC50 for Benzimidalzole-sensitive Cercospora beticola isolate 24-3 to EC50 for Benzimidalzole-resistant Cercospora beticola isolate 1-3; format: functional
[28] = test system: Cercospora beticola; assay: Ratio of EC50 for Benzimidalzole-sensitive Cercospora beticola isolate 24-3 to EC50 for Benzimidalzole-resistant Cercospora beticola isole Cb-19; format: functional
[29] = test system: Cercospora beticola; assay: Ratio of EC50 for Benzimidalzole-sensitive Cercospora beticola isolate 22-5 to EC50 for Benzimidalzole-resistant Cercospora beticola isolate 49-4; format: functional
[30] = test system: Cercospora beticola; assay: Ratio of EC50 for Benzimidalzole-sensitive Cercospora beticola isolate 22-5 to EC50 for Benzimidalzole-resistant Cercospora beticola isolate 18-2; format: functional
[31] = test system: Cercospora beticola; assay: Ratio of EC50 for Benzimidalzole-sensitive Cercospora beticola isolate 22-5 to EC50 for Benzimidalzole-resistant Cercospora beticola isole 28-8; format: functional
[32] = test system: Cercospora beticola; assay: Ratio of EC50 for Benzimidalzole-sensitive Cercospora beticola isolate 22-5 to EC50 for Benzimidalzole-resistant Cercospora beticola isole Cb-19; format: functional
[33] = test system: Cercospora beticola; assay: Ratio of EC50 for Benzimidalzole-sensitive Cercospora beticola isolate 18-1 to EC50 for Benzimidalzole-resistant Cercospora beticola isolate 49-4; format: functional
[34] = test system: Cercospora beticola; assay: Ratio of EC50 for Benzimidalzole-sensitive Cercospora beticola isolate 18-1 to EC50 for Benzimidalzole-resistant Cercospora beticola isolate 1-3; format: functional
[35] = test system: Cercospora beticola; assay: Ratio of EC50 for Benzimidalzole-sensitive Cercospora beticola isolate 18-1 to EC50 for Benzimidalzole-resistant Cercospora beticola isole 28-8; format: functional
[36] = test system: Botrytis cinerea; assay: Antifungal activity against Benzimidalzole-resistant Botryotinia fuckeliana isolate Bc-44 infected kidney bean leaves at 3.1 ppm 24 hr post-infection measured after 3 days; format: functional
[37] = test system: Botrytis cinerea; assay: Antifungal activity against Benzimidalzole-resistant Botryotinia fuckeliana isolate Bc-44 infected kidney bean leaves at 50 ppm 24 hr post-infection measured after 3 days; format: functional
[38] = test system: Botrytis cinerea; assay: Antifungal activity against Benzimidalzole-resistant Botryotinia fuckeliana isolate Bc-44 infected kidney bean leaves at 200 ppm 24 hr post-infection measured after 3 days; format: functional
[39] = test system: Cercospora beticola; assay: Antifungal activity against Benzimidalzole-resistant Cercospora beticola isolate 18-2 infected in compound-treated sugar beet seedlings at 3.1 ppm after 12 days; format: functional
[40] = test system: Cercospora beticola; assay: Antifungal activity against Benzimidalzole-resistant Cercospora beticola isolate 18-2 infected in compound-treated sugar beet seedlings at 50 ppm after 12 days; format: functional
[41] = test system: Cercospora beticola; assay: Antifungal activity against Benzimidalzole-resistant Cercospora beticola isolate Cb-19 infected in compound-treated sugar beet seedlings at 3.1 ppm after 12 days; format: functional
[42] = test system: Cercospora beticola; assay: Antifungal activity against Benzimidalzole-resistant Cercospora beticola isolate Cb-19 infected in compound-treated sugar beet seedlings at 12.5 ppm after 12 days; format: functional
[43] = test system: Cercospora beticola; assay: Antifungal activity against Benzimidalzole-resistant Cercospora beticola isolate Cb-19 infected in compound-treated sugar beet seedlings at 200 ppm after 12 days; format: functional

C#CCOc1c(Cl)cc(N/C=N/OC)cc1Cl
7%: Activity [3]
> 1000: Ratio EC50 [5] | Ratio EC50 [6] | Ratio EC50 [7] | Ratio EC50 [8] | Ratio EC50 [9] | Ratio EC50 [12] | Ratio EC50 [13] | Ratio EC50 [14] | Ratio EC50 [15] | Ratio EC50 [16] | Ratio EC50 [17] | Ratio EC50 [18] | Ratio EC50 [25] | Ratio EC50 [26] | Ratio EC50 [27] | Ratio EC50 [28] | Ratio EC50 [29] | Ratio EC50 [30] | Ratio EC50 [31] | Ratio EC50 [32] | Ratio EC50 [33] | Ratio EC50 [34] | Ratio EC50 [35]
active: Activity [21] | Activity [22] | Activity [23] | Activity [24]
17%: Activity [4]
91%: Activity [39] | Activity [41]
inactive: Activity [10] | Activity [11] | Activity [19] | Activity [20]
96%: Activity [2]
100%: Activity [37] | Activity [38] | Activity [40] | Activity [42] | Activity [43]
73%: Activity [36]
40%: Activity [1]

C#CCOc1cc(N/C=N/OC)cc(Cl)c1OCC#C
94%: Activity [41]
91%: Activity [2] | Activity [36]
31%: Activity [4]
100%: Activity [37] | Activity [38] | Activity [40] | Activity [42] | Activity [43]
58%: Activity [1]
77%: Activity [3]
84%: Activity [39]
active: Activity [21] | Activity [22] | Activity [23] | Activity [24]
inactive: Activity [10] | Activity [11] | Activity [19] | Activity [20]
> 1000: Ratio EC50 [5] | Ratio EC50 [6] | Ratio EC50 [7] | Ratio EC50 [8] | Ratio EC50 [9] | Ratio EC50 [12] | Ratio EC50 [13] | Ratio EC50 [14] | Ratio EC50 [15] | Ratio EC50 [16] | Ratio EC50 [17] | Ratio EC50 [18] | Ratio EC50 [25] | Ratio EC50 [26] | Ratio EC50 [27] | Ratio EC50 [28] | Ratio EC50 [29] | Ratio EC50 [30] | Ratio EC50 [31] | Ratio EC50 [32] | Ratio EC50 [33] | Ratio EC50 [34] | Ratio EC50 [35]
